Results published in PMC6093232, “PROMIS, global analysis of PROtein–metabolite interactions using size separation in Arabidopsis thaliana” (The Journal of Biological Chemistry, 2018).
Like-named read-outs stand apart in the source and are kept apart here. Where a SMILES comes first, the peptide text is derived from it.

Experiments:
GAPDH [1] = target: T1, GAPDH (Homo sapiens, UniProt P04406); test: biochemical; design: nanoDSF thermal shift, intrinsic fluorescence ratio 350/330 nm, Prometheus NT.48; settings: 10 mM Tris pH 7.5, 0.5 M NaCl
T1 construct: commercial human recombinant protein (Sigma)
T1 sequence (P04406 2-335): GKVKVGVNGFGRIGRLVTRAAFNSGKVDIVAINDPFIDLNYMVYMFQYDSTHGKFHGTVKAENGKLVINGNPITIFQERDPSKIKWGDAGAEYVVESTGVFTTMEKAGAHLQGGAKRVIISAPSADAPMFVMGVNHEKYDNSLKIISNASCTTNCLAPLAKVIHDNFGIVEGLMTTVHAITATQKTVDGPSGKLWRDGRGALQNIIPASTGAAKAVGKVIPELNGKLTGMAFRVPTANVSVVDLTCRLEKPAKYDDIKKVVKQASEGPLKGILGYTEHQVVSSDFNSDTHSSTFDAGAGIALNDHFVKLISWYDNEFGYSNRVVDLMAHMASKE
Procedure: (§1) Protein thermal stability measurements GAPC1/2, GAPCP1, and GAPCP2 proteins were obtained as described above, and the human GAPDH recombinant protein was obtained from a commercial supplier (Sigma) and stored in 10 mM Tris buffer (pH 7.5, 0.5 M NaCl). Tyr–Asp (25 μM), 3PGA (250 μM), and other dipeptides (25 μM) were prepared in 1× PBS buffer for the measurements using GAPC1/2 protein. For GAPCP1 Tyr–Asp (25 μM), 3PGA (250 μM) and other dipeptides (25 μM) were prepared in 1× PBS buffer, whereas for GAPCP2 Tyr–Asp (50 μM), 3PGA (250 μM) and other dipeptides (50 μM) were prepared in 1× PBS buffer. In addition, for the human GAPDH Tyr–Asp (500 μM), 3PGA (500 μM) and other dipeptides (500 μM) were prepared in Tris buffer (10 mM Tris-HCl, pH 7.5, 0.5 M NaCl). In accordance, GAPDH (1 μM) and GAPCs (0.2–0.25 mg/ml) were diluted using Tris or PBS buffer, respectively. Capillaries were loaded into the Prometheus NT.48 (Nanotemper). Unfolding was detected during heating in a linear thermal ramp (2 °C min^−1, 20–90 °C) with an excitation power of 60–100%. Temperature-dependent protein unfolding was determined from changes in tryptophan and tyrosine fluorescence at emission wavelengths of 350 and 330 nm. Melting temperatures were determined by detecting the maximum of the first derivative of the fluorescence ratios (F350 nm/F330 nm) as described previously ([43]). To validate the binding, we first tested a commercially available human homolog of GAPC1, GAPDH. Subsequently, plant GAPC1/2, GAPCP1, and GAPCP2 were overexpressed and purified from E. coli. Binding was probed using nano-DSF technology from Nanotemper (Prometheus NT.48; see under “Experimental procedures”). Prometheus NT.48 traces protein thermal stability by recording changes in the tryptophan residues during protein unfolding in an increasing temperature gradient. The melting temperature (Tm) of GAPDH was calculated as 60 °C, GAPC1/2 to 54 °C, GAPCP1 to 55 °C, and GAPCP2 to 55 °C (Fig. 7, C–F; Tables S5 and S6). […] Analogous results were obtained for Tyr–Asp. More specifically, 500 μM Tyr–Asp stabilized GAPDH by ∼1.1 °C, whereas 25–50 μM Tyr–Asp destabilized GAPC1/2, GAPCP1, and GAPCP2 by ∼1, 2, and 1.5 °C, respectively (Fig. 7, C–F; Tables S5 and S6). The obtained results validate the interaction between Tyr–Asp and plant glyceraldehyde-3-P dehydrogenases. The interaction is conserved in the human enzyme.

GAPCP2 [2] = target: T2, GAPCP2 (Arabidopsis thaliana, UniProt Q5E924); test: biochemical; design: nanoDSF thermal shift, intrinsic fluorescence ratio 350/330 nm, Prometheus NT.48; settings: 1x PBS
T2 construct: N-terminal His6 (pDEST17), cloned from Arabidopsis cDNA, expressed in E. coli, SEC purified
T2 sequence (Q5E924 67-420): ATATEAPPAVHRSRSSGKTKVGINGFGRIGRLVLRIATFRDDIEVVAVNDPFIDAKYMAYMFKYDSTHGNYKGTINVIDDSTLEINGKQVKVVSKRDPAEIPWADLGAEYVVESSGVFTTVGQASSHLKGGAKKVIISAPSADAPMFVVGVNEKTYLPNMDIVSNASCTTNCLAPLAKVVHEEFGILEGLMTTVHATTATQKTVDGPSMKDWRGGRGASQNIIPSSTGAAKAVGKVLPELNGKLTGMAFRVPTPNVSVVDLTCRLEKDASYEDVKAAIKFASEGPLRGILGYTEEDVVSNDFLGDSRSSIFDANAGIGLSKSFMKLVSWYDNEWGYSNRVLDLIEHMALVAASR
Procedure: as §1

GAPCP1 [3] = target: T3, GAPCP1 (Arabidopsis thaliana, UniProt Q9SAJ6); test: biochemical; design: nanoDSF thermal shift, intrinsic fluorescence ratio 350/330 nm, Prometheus NT.48; settings: 1x PBS
T3 construct: N-terminal His6 (pDEST17), cloned from Arabidopsis cDNA, expressed in E. coli, SEC purified
T3 sequence (Q9SAJ6 whole entry): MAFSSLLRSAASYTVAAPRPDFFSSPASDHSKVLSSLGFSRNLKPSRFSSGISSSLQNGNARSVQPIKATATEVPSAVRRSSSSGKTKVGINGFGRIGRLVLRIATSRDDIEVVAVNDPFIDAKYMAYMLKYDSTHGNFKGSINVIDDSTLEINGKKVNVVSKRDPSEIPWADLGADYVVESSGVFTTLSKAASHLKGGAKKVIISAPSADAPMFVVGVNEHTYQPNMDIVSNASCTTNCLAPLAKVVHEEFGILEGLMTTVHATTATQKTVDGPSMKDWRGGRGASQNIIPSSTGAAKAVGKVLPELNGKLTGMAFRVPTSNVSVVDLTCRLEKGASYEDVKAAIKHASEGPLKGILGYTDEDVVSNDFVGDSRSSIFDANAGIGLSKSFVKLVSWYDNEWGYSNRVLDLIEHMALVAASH
Procedure: as §1

GAPDH [4] = target: T1, GAPDH; test: nanoDSF thermal shift; type: binding; settings: 500 μM ligand; 1 μM protein; 10 mM Tris-HCl pH 7.5, 0.5 M NaCl
MTI = target: T4, MTI (Arabidopsis thaliana, UniProt Q9ZUG4); test: microscale thermophoresis; type: binding
T4 construct: gene At2g05830; N-terminal His6 (pET300), E. coli BL21 Star (DE3), Ni-NTA purified; RED-Tris-NTA labelled
T4 sequence (Q9ZUG4 1-374): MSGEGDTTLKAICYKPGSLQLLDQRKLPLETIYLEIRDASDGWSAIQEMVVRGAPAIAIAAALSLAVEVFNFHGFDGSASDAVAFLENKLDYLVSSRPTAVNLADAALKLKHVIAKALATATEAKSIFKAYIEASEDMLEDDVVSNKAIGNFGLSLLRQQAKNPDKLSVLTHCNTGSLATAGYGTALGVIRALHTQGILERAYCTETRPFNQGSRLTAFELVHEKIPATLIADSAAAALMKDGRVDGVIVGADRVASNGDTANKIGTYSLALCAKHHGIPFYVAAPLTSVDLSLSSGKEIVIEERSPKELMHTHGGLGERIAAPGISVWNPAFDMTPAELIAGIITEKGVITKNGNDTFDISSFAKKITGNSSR

GAPCP2 [5] = target: T2, GAPCP2; test: biochemical; design: nanoDSF thermal shift; Tm from ratio of tryptophan fluorescence at 350 and 330 nm
Procedure: (§2) GAPC1/2, GAPCP1, and GAPCP2 proteins were obtained as described above, and the human GAPDH recombinant protein was obtained from a commercial supplier (Sigma) and stored in 10 mM Tris buffer (pH 7.5, 0.5 M NaCl). Tyr–Asp (25 μM), 3PGA (250 μM), and other dipeptides (25 μM) were prepared in 1× PBS buffer for the measurements using GAPC1/2 protein. For GAPCP1 Tyr–Asp (25 μM), 3PGA (250 μM) and other dipeptides (25 μM) were prepared in 1× PBS buffer, whereas for GAPCP2 Tyr–Asp (50 μM), 3PGA (250 μM) and other dipeptides (50 μM) were prepared in 1× PBS buffer. In addition, for the human GAPDH Tyr–Asp (500 μM), 3PGA (500 μM) and other dipeptides (500 μM) were prepared in Tris buffer (10 mM Tris-HCl, pH 7.5, 0.5 M NaCl). […] Unfolding was detected during heating in a linear thermal ramp (2 °C min^−1, 20–90 °C) with an excitation power of 60–100%. Temperature-dependent protein unfolding was determined from changes in tryptophan and tyrosine fluorescence at emission wavelengths of 350 and 330 nm. Melting temperatures were determined by detecting the maximum of the first derivative of the fluorescence ratios (F350 nm/F330 nm) as described previously ([43]). […] The melting temperature (Tm) of GAPDH was calculated as 60 °C, GAPC1/2 to 54 °C, GAPCP1 to 55 °C, and GAPCP2 to 55 °C (Fig. 7, C–F; Tables S5 and S6). […]

GAPCP1 [6] = target: T3, GAPCP1; test: biochemical; design: nanoDSF thermal shift; Tm from ratio of tryptophan fluorescence at 350 and 330 nm
Procedure: as §2

GAPCP1 [7] = target: T3, GAPCP1; test: nanoDSF thermal shift; type: binding; settings: 25 μM ligand; 0.2-0.25 mg/ml protein; PBS
GAPCP2 [8] = target: T2, GAPCP2; test: nanoDSF thermal shift; type: binding; settings: 50 μM ligand; 0.2-0.25 mg/ml protein; PBS
KPHMT1 = target: T5, KPHMT1 (Arabidopsis thaliana, UniProt O82357); test: microscale thermophoresis; type: binding
T5 construct: N-terminal 144 bp of CDS (mitochondrial signal peptide, 48 residues) deleted; N-terminal His6 (pET300), E. coli BL21 Star (DE3); purified per Results, bacterial lysate used directly per Methods; RED-Tris-NTA labelled
T5 sequence (O82357 49-347): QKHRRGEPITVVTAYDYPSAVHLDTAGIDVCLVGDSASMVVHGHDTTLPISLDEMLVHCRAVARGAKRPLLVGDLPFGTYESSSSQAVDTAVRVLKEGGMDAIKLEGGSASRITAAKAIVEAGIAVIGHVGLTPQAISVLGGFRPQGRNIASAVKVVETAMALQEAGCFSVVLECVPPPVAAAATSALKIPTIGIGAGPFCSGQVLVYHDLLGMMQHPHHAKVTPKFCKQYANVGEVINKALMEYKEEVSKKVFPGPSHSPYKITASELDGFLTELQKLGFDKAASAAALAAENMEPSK

SMILES | ΔTm at 500 µM (GAPDH [1]) [°C] | ΔTm at 50 µM (GAPCP2 [2]) [°C] | ΔTm at 25 µM (GAPCP1 [3]) [°C] | also measured
NCC(=O)N1CCC[C@H]1C(=O)O [GlyPro] (H-Gly-Pro-OH) | 0.1 | 0.55 | -0.11 | 
N[C@@H](Cc1c[nH]cn1)C(=O)N[C@@H](Cc1ccc(O)cc1)C(=O)O [His–Tyr] (H-His-Tyr-OH) | -1.2 | 0.22 | -0.02 | dTm (GAPDH [4]): Tm of the human GAPDH was affected by the presence of two other Tyr-containing dipeptides
CC(C)C[C@H](N)C(=O)N[C@@H](Cc1ccccc1)C(=O)O [LeuPhe] (H-Leu-Phe-OH) | 0.2 | 0.2 | -0.33 | 
CSC[C@H]1O[C@@H](n2cnc3c(N)ncnc32)[C@H](O)[C@@H]1O [MTA] |  |  |  | Kd (MTI): 4 µM
CC(C)C[C@H](NC(=O)[C@@H](N)Cc1ccc(O)cc1)C(=O)O [TyrLeu] (H-Tyr-Leu-OH) | 2.2 | 1.67 | 0.15 | 
N[C@@H](Cc1ccc(O)cc1)C(=O)N[C@@H](CC(=O)O)C(=O)O [Tyr–Asp] (H-Tyr-Asp-OH) |  |  |  | ΔTm at 500 µM (GAPDH [1]; experiment 1): 2.2 °C; ΔTm at 500 µM (GAPDH [1]; experiment 2): 1.31 °C; ΔTm at 500 µM (GAPDH [1]; experiment 4): 1.06 °C; ΔTm at 50 µM (GAPCP2 [2]; experiment 1): -1.6 °C; ΔTm at 50 µM (GAPCP2 [2]; experiment 2): -1.58 °C; ΔTm at 50 µM (GAPCP2 [2]; experiment 3): -1.55 °C; ΔTm at 50 µM (GAPCP2 [2]; experiment 4): -1.23 °C; ΔTm at 25 µM (GAPCP1 [3]; experiment 1): -1.56 °C; ΔTm at 25 µM (GAPCP1 [3]; experiment 2): -2.09 °C; ΔTm at 25 µM (GAPCP1 [3]; experiment 3): -2.2 °C; ΔTm at 25 µM (GAPCP1 [3]; experiment 4): -2.06 °C; ΔTm at 50 µM (GAPCP2 [5]): -1.23 °C; ΔTm at 25 µM (GAPCP1 [6]): -2.06 °C; dTm (destabilized) (GAPCP1 [7]): ~ 2 °C; dTm (destabilized) (GAPCP2 [8]): ~ 1.5 °C
CC(C)(CO)[C@@H](O)C(=O)NCCC(=O)O [pantothenate] |  |  |  | Kd (KPHMT1): 500 µM

Second part, led by results:

ΔTm at 500 µM (GAPDH [1]) [°C] | ΔTm at 50 µM (GAPCP2 [2]) [°C] | ΔTm at 25 µM (GAPCP1 [3]) [°C] | SMILES | also measured
0.1 | -0.12 | -0.1 | O=C(O)CC[C@H](NC(=O)[C@@H]1CCCN1)C(=O)O [ProGlu] (H-Pro-Glu-OH) | 
0.2 | 0.66 | -0.01 | CSCC[C@H](NC(=O)[C@@H](N)[C@@H](C)O)C(=O)O [ThrMet] (H-Thr-Met-OH) | 
